Data from EP3417074B1, “ANALYTICAL METHODS AND ARRAYS FOR USE IN THE SAME” (SenzaGen AB, priority 2016, dated 2017).
“And” between values parts separate entries of the source, which are not always exact repeats. Identical values can stand only once. “Also recorded” adds a separate entry of the source. Counter-ions that a name gives are not always drawn. Like-named read-outs stand apart in the source and are kept apart here.

Key:
human skin = details: cited from earlier work; for Human potency [41]: Table 6, test set
[1] = cited from earlier work; for binary class (HP*): Table 1, based on [41] where available, HP 1-4=S, 5-6=NS, otherwise according to CLP
MUTZ-3 cells [2] = assay: Cytotoxicity / viability by flow cytometry (propidium iodide); details: Table 1, 24 hours exposure
MUTZ-3 cells [3] = assay: GARD random forest model for prediction of CLP categories (52 transcripts, Example A); details: for predicted CLP: Suppl. Table 1, separate replicates in the test set; for GARD predicted CLP: Table 6, independent test set, majority voting across replicates; for CLP category predicted by the random forest model: test set, majority votes
MUTZ-3 cells [4] = assay: GARD binary classification (SVM on GARD prediction signature, 200 transcripts); details: for SVM DV: Table 8, average SVM decision value derived from triplicates; for GARD binary prediction: Table 1, sensitizer if median calibrated SVM DV of replicates > 0
Source text: The SVM model had been developed for binary classifications (sensitizer versus non-sensitizer).

Compound | HP (human skin; Table 4) | binary class ([1]; Table 4) | cytotox (MUTZ-3 cells [2]) | SVM DV (MUTZ-3 cells [4]) | also measured
C=CC(C)(O)CCC=C(C)C (stereo not drawn) [linalool] | 4 | sens | no |  | Human potency [41] (human skin): 4; binary class (HP*) [1]: S; predicted CLP (MUTZ-3 cells [3]): no cat and 1B (2×); GARD predicted CLP (MUTZ-3 cells [3]): 1B
CC(CC=O)CCCC(C)(C)O (stereo not drawn) [hydroxycitronellal] | 4 | sens |  |  | 
CCOC(=O)c1ccccc1C(=O)OCC [diethyl phthalate] |  | non-sens |  | -2,15 | Human potency [41] (human skin): 6; HP (human skin): 6; Human potency (human skin): 6; predicted CLP (MUTZ-3 cells [3]): no cat; GARD predicted CLP (MUTZ-3 cells [3]): no cat
[K+].[K+].[O]=[Cr](=[O])([O-])[O][Cr](=[O])(=[O])[O-] [potassium dichromate] | 1 | sens |  | 8,45 | Human potency (human skin; Table 8): 1
O=C(Oc1ccccc1)c1ccccc1 [phenyl benzoate] | 3 | sens |  |  | 
CCCCCCCCCCCCOC(=O)c1cc(O)c(O)c(O)c1 [lauryl gallate] | 2 | sens |  |  | 
O=C(O)CC(O)(CC(=O)O)C(=O)O [citric acid] |  |  | no |  | 
CCCCCCOC(=O)c1ccccc1O [hexyl salicylate] |  | sens | yes |  | HP (human skin): 4; binary class (HP*) [1]: S; GARD binary prediction (MUTZ-3 cells [4]): S
CCCCCCCCCCCCCC(=O)OC(C)C [isopropyl myristate] | 5 | sens | no |  | 
O=[N+]([O-])c1ccc(CBr)cc1 [4-nitrobenzylbromide] |  | sens |  |  | 
CN(C)CCCN1c2ccccc2Sc2ccc(Cl)cc21 [chlorpromazine] | 3 | sens | yes |  | binary class (HP*) [1]: S; GARD binary prediction (MUTZ-3 cells [4]): S
Oc1cccc(O)c1 [resorcinol] | 4 |  |  | 1,03 | HP (human skin; Table 2, benchmark chemicals): 4; Human potency (human skin; Table 8): 4
CCCCBr [1-bromobutane] |  | non-sens |  |  | predicted CLP (MUTZ-3 cells [3]): no cat; GARD predicted CLP (MUTZ-3 cells [3]): no cat
CCCCCC#CC(=O)OC [methyl heptine carbonate] | 2 | sens | yes |  | binary class (HP*) [1]: S; GARD binary prediction (MUTZ-3 cells [4]): S
C=CC(=O)OCCO [2-hydroxyethyl acrylate] |  |  |  | 8,87 | 
O=C(O)c1ccc(O)cc1 [p-hydroxybenzoic acid] |  | non-sens |  |  | 
CC(C)=CCCC(C)=CC=O [citral] |  | sens | yes |  | HP (human skin): 3; binary class (HP*) [1]: S; GARD binary prediction (MUTZ-3 cells [4]): S
CCOC(=O)/C=C\C(=O)OCC [diethyl maleate] | 2 | sens |  |  | human potency category (human skin; Basketter et al. [41]): 2; Human potency [41] (human skin): 2; predicted CLP (MUTZ-3 cells [3]): 1A; GARD predicted CLP (MUTZ-3 cells [3]): 1A; CLP category predicted by the random forest model (MUTZ-3 cells [3]): 1A
Cc1cccc(O)c1O [3-Methylcatechol] |  | sens | yes |  | binary class (HP*) [1]: S; GARD binary prediction (MUTZ-3 cells [4]): S
O=Cc1ccccc1 [benzaldehyde] |  |  |  | -2,13 | 
OCc1ccccc1 [benzyl alcohol] |  | non-sens | no |  | 

Compound | HP (human skin; Table 4) | binary class ([1]; Table 4) | cytotox (MUTZ-3 cells [2]) | SVM DV (MUTZ-3 cells [4]) | also measured
O=CC=Cc1ccccc1 [cinnamaldehyde] |  |  |  |  | HP (human skin): 2
O=C(OCc1ccccc1)c1ccccc1 [benzyl benzoate] |  |  | yes |  | GARD binary prediction (MUTZ-3 cells [4]): S; predicted CLP (MUTZ-3 cells [3]): 1B; GARD predicted CLP (MUTZ-3 cells [3]): 1B
O=c1c(-c2ccccc2)c1-c1ccccc1 [diphenylcyclopropenone] | 1 | sens |  |  | 
CC(C)O [isopropanol] | 5 | non-sens |  | -1,37 | Human potency (human skin; Table 8): 5
CCCOC(=O)c1cc(O)c(O)c(O)c1 [propyl gallate] | 2 | sens | yes |  | Human potency [41] (human skin): 2; binary class (HP*) [1]: S; GARD binary prediction (MUTZ-3 cells [4]): S; predicted CLP (MUTZ-3 cells [3]): 1A; GARD predicted CLP (MUTZ-3 cells [3]): 1A
O=CC=O [glyoxal] |  |  |  | 1,08 | HP (human skin): 2; Human potency (human skin): 2
Oc1c(Cl)c(Cl)c(Cl)c(Cl)c1Cl [pentachlorophenol] |  | sens | no |  | HP (human skin): 5
Clc1nc(Cl)nc(Cl)n1 [cyanuric chloride] |  | sens | yes |  | binary class (HP*) [1]: S; predicted CLP (MUTZ-3 cells [3]): 1B and no cat (2×); GARD predicted CLP (MUTZ-3 cells [3]): no cat; CLP category predicted by the random forest model (MUTZ-3 cells [3]): no cat; also recorded: no category
COC(=O)c1ccccc1O [methyl salicylate] | 5 | non-sens |  | -1,53 | Human potency (human skin; Table 8): 5
CC(C)=CCC/C(C)=C/CO [geraniol] |  |  |  | 1,76 | 
OCC(O)CO [glycerol] | 6 |  |  | -2,05 | Human potency (human skin; Table 8): 6
Nc1ccccc1O [2-aminophenol] |  |  |  | 5,98 | HP (human skin): 2; Human potency (human skin): 2
Nc1ccc(N)cc1 [p-phenylenediamine] |  | sens |  | 5,32 | Human potency (human skin; Table 8): 1; HP (human skin): 1; binary class ([1]; Table 2, benchmark chemicals): sens
CCCCCCCC(=O)O [octanoic acid] |  | non-sens |  | -1,19 | Human potency (human skin; Table 8): 6; HP (human skin): 6
CCCCCCCC/C=C\CCCCCCCC(=O)OCCOCC(OCCO)C1OCC(OCCO)C1OCCO (stereo not drawn) [Tween 80] | 6 | non-sens |  | -1,39 | Human potency (human skin; Table 8): 6
O=[N+]([O-])c1ccc(Cl)c([N+](=O)[O-])c1 [2,4-dinitrochlorobenzene] |  | sens |  | 6,31 | HP (human skin): 1; Human potency (human skin): 1; binary class ([1]; Table 2, benchmark chemicals): sens
CC=Cc1ccc(O)c(OC)c1 [isoeugenol] | 2 | sens |  | 1,91 | Human potency (human skin; Table 8): 2
Sc1nc2ccccc2s1 [2-mercaptobenzothiazole] | 3 | sens |  | 2,52 | Human potency (human skin; Table 8): 3
O=CCc1ccccc1 [phenyl acetaldehyde] |  | sens |  |  | 
OCCNCCO [diethanolamine] |  | sens | no |  | HP (human skin): 5
CC(C)C1=CC2=CC[C@@H]3[C@](C)(CCC[C@@]3(C)C(=O)O)[C@H]2CC1 [abietic acid] | 3 | sens | no |  | binary class (HP*) [1]: S; GARD binary prediction (MUTZ-3 cells [4]): S

Compound | HP (human skin; Table 4) | binary class ([1]; Table 4) | cytotox (MUTZ-3 cells [2]) | SVM DV (MUTZ-3 cells [4]) | also measured
O=[N+]([O-])c1ccc(F)c([N+](=O)[O-])c1 [2,4-Dinitrofluorobenzene] |  | sens |  |  | binary class (HP*) [1]: S; GARD binary prediction (MUTZ-3 cells [4]): S
N#CCCC(Br)(C#N)CBr (stereo not drawn) [methyldibromo glutaronitrile] | 2 | sens |  |  | 
OCC=Cc1ccccc1 [cinnamyl alcohol] | 3 | sens |  | 2,94 | Human potency (human skin; Table 8): 3
CC(O)CO (stereo not drawn) [Propylene glycol] |  |  |  | -1,18 | Human potency (human skin; Table 8): 5
Nc1ccc(C(=O)O)cc1 [PABA] |  |  |  | -1,04 | Human potency (human skin): 5
CCCCCC [hexane] | 6 | non-sens |  |  | 
CCCCCCC(C=O)=Cc1ccccc1 [hexylcinnamic aldehyde] | 5 | sens |  | 1,24 | HP (human skin; Table 2, benchmark chemicals): 5; Human potency (human skin; Table 8): 5; binary class ([1]; Table 2, benchmark chemicals): sens
Clc1ccccc1 [chlorobenzene] |  |  |  | -1,63 | HP (human skin): 6; Human potency (human skin): 6
Oc1ccc(O)cc1 [hydroquinone] | 3 | sens |  |  | 
chloroanilin |  | sens |  |  | 
CN(C)C(=S)SSC(=S)N(C)C [tetramethylthiuram disulfide] |  |  |  |  | HP (human skin): 3
CCCCC/C(=C/c1ccccc1)CO [amylcinnamyl alcohol] |  |  | yes |  | HP (human skin): 4; GARD binary prediction (MUTZ-3 cells [4]): S
xylene | 6 |  |  |  | Human potency [41] (human skin): 6
CC1(C)S[C@@H]2[C@H](NC(=O)Cc3ccccc3)C(=O)N2[C@H]1C(=O)O [Penicillin G] |  |  |  | 1,06 | Human potency (human skin; Table 8): 3
O=C(O)c1ccccc1O [salicylic acid] |  |  |  | -1,41 | HP (human skin): 6; Human potency (human skin): 6
CC(O)C(=O)O (stereo not drawn) [lactic acid] |  |  |  | -2,38 | HP (human skin): 6; Human potency (human skin): 6
CC(C)=CCCC(C)CCO (stereo not drawn) [citronellol] | 5 | sens | no |  | GARD binary prediction (MUTZ-3 cells [4]): S
O=C(O)C(O)C(O)C(=O)O (stereo not drawn) [tartaric acid] |  |  | no |  | 
NCCN [ethylenediamine] |  |  |  | 1,12 | 
CCOC(=O)c1ccc(N)cc1 [benzocaine] | 4 | sens | no |  | binary class (HP*) [1]: S; binary classification according to the established GARD model (MUTZ-3 cells [4]; sensitizing chemicals close to the cut-off defined by benchmark samples): misclassified
